# From patent publication US10308645B2, “Piperidine oxadiazole and thiadiazole orexin receptor antagonists” (MERCK SHARP & DOHME CORP., priority 2014, dated 2019)
# Columns and labels:
# [1] = biological target: hOX1R (orexin-1 receptor) (Homo sapiens, UniProt O43613); test: FLIPR Ca2+ Flux Assay, hOX1R; type: cell-based; conditions: CHO cells expressing the receptor; agonist Ala-6,12 human orexin-A
# human orexin-2 receptor = human orexin-2 receptor (Homo sapiens (Human), UniProt O43614); test: FLIPR Ca2+ Flux Assay, hOX2R; type: cell-based; conditions: CHO cells expressing the receptor; agonist Ala-6,12 human orexin-A
# Sequence of human orexin-2 receptor (O43614 whole entry): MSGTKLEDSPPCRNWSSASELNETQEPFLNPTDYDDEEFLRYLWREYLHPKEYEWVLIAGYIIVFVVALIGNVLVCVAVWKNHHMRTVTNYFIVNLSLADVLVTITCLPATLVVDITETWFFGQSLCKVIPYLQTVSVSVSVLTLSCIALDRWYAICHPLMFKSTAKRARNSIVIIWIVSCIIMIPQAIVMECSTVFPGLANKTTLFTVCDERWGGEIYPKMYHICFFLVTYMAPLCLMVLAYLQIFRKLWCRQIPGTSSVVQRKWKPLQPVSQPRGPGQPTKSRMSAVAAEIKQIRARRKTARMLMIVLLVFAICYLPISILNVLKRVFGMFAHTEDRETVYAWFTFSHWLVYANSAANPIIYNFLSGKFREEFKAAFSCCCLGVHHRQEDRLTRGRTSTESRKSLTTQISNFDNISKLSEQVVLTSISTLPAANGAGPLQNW
# Experimental: The utility of the compounds in accordance with the present invention as orexin receptor OX1R and/or OX2R antagonists may be readily determined without undue experimentation by methodology well known in the art, including the “FLIPR Ca^2+ Flux Assay” (Okumura et al., Biochem. Biophys. Res. Comm. 280:976-981, 2001). In a typical experiment the OX1 and OX2 receptor antagonistic activity of the compounds of the present invention was determined in accordance with the following experimental method. For intracellular calcium measurements, Chinese hamster ovary (CHO) cells expressing the rat orexin-1 receptor or the human orexin-2 receptor, are grown in Iscove's modified DMEM containing 2 mM L-glutamine, […], 1% hypoxanthine-thymidine supplement, 100 U/ml penicillin, 100 μg/ml streptomycin and 10% heat-inactivated fetal calf serum (FCS). The cells are seeded at 20,000 cells/well into Becton-Dickinson black 384-well clear bottom sterile plates coated with poly-D-lysine. All reagents were from GIBCO-Invitrogen Corp. The seeded plates are incubated overnight at 37° C. and 5% CO2. Ala-6,12 human orexin-A as the agonist is prepared as a 1 mM stock solution in 1% bovine serum albumin (BSA) and diluted in assay buffer (HBSS containing 20 mM HEPES, 0.1% BSA and 2.5 mM probenecid, pH7.4) for use in the assay at a final concentration of 70 pM. Test compounds are prepared as 10 mM stock solution in DMSO, then diluted in 384-well plates, first in DMSO, then assay buffer. On the day of the assay, cells are washed 3 times with 100 μl assay buffer and then incubated for 60 min (37° C., 5% CO2) in 60 μl assay buffer containing 1 μM Fluo-4AM ester, 0.02% pluronic acid, and 1% BSA. The dye loading solution is then aspirated and cells are washed 3 times with 100 μl assay buffer. 30 μl of that same buffer is left in each well. Within the Fluorescent Imaging Plate Reader (FLIPR, Molecular Devices), test compounds are added to the plate in a volume of 25 μl, incubated for 5 min and finally 25 μl of agonist is added. Fluorescence is measured for each well at 1 second intervals for 5 minutes and the height of each fluorescence peak is compared to the height of the fluorescence peak induced by […] Ala-6,12 orexin-A with buffer in place of antagonist. For each antagonist, IC50 value (the concentration of compound needed to inhibit 50% of the agonist response) is determined. Alternatively, compound potency can be assessed by a radioligand binding assay (described in Bergman et. al. Bioorg. Med. Chem. Lett. 2008, 18, 1425-1430) in which the inhibition constant (Ki) is determined in membranes prepared from CHO cells expressing either the OX1 or OX2 receptor. The intrinsic orexin receptor antagonist activity of a compound which may be used in the present invention may be determined by these assays.
Compound,IC50 [1],IC50 (human orexin-2 receptor)
"C[C@@H]1CC[C@@H](c2noc(C(C)(C)O)n2)CN1C(=O)c1cscc1-c1ncccn1 [Example 24, 2-(3-{(3R,6R)-6-methyl-1-[(4-pyrimidin-2-ylthiophen-3-yl)carbonyl]piperidin-3-yl}-1,2,4-oxadiazol-5-yl)propan-2-ol]",> 10 µM,76 nM
"C[C@@H]1CC[C@@H](c2nc(C(C)(C)C)no2)CN1C(=O)c1ccccc1-n1nccn1 [Example 25, (2R,5R)-5-(3-tert-Butyl-1,2,4-oxadiazol-5-yl)-2-methyl-1-{[2-(2H-1,2,3-triazol-2-yl)phenyl]carbonyl}piperidine]",1.15 µM,87 nM
"CC(C)c1noc([C@@H]2CC[C@@H](C)N(C(=O)c3ccccc3-n3nccn3)C2)n1 [Example 26, (2R,5R)-2-methyl-5-[3-(1-methylethyl)-1,2,4-oxadiazol-5-yl]-1-{[2-(2H-1,2,3-triazol-2-yl)phenyl]carbonyl}piperidine]",4.5 µM,124 nM
"C[C@@H]1CC[C@@H](c2nc(C(C)(C)O)no2)CN1C(=O)c1ccccc1-n1nccn1 [Example 27, 2-{5-[(3R,6R)-6-methyl-1-{[2-(2H-1,2,3-triazol-2-yl)phenyl]carbonyl}piperidin-3-yl]-1,2,4-oxadiazol-3-yl}propan-2-ol]",> 10 µM,75 nM
"C[C@@H]1CC[C@@H](c2nc(C3CC3)no2)CN1C(=O)c1ccccc1-n1nccn1 [Example 28, (2R,5R)-5-(3-cyclopropyl-1,2,4-oxadiazol-5-yl)-2-methyl-1-{[2-(2H-1,2,3-triazol-2-yl)phenyl]carbonyl}piperidine]",> 10 µM,345 nM
"C[C@@H]1CC[C@@H](c2nsc(C(C)(C)O)n2)CN1C(=O)c1ccsc1-n1nccn1 [Example 29, 2-{3-[(3R,6R)-6-Methyl-1-{[2-(2H-1,2,3-triazol-2-yl)thiophen-3-yl]carbonyl}piperidin-3-yl]-1,2,4-thiadiazol-5-yl}propan-2-ol]",> 10 µM,88 nM
"CC(C)Oc1ncccc1C(=O)N1C[C@H](c2nsc(C(C)(C)O)n2)CC[C@H]1C [Example 30, 2-{3-[(3R,6R)-6-methyl-1-{[2-(1-methylethoxy)pyridin-3-yl]carbonyl}piperidin-3-yl]-1,2,4-thiadiazol-5-yl}propan-2-ol]",> 10 µM,298 nM
"C[C@@H]1CC[C@@H](c2nsc(C(C)(C)O)n2)CN1C(=O)c1cscc1-n1nccn1 [Example 31, 2-{3-[(3R,6R)-6-methyl-1-{[4-(2H-1,2,3-triazol-2-yl)thiophen-3-yl]carbonyl}piperidin-3-yl]-1,2,4-thiadiazol-5-yl}propan-2-ol]",> 10 µM,110 nM
"C[C@@H]1CC[C@@H](c2nsc(C(C)(C)O)n2)CN1C(=O)c1ccccc1C1(C#N)CC1 [Example 32, 1-[2-({(2R,5R)-5-[5-(1-hydroxy-1-methylethyl)-1,2,4-thiadiazol-3-yl]-2-methylpiperidin-1-yl}carbonyl)phenyl]cyclopropane-carbonitrile]",2.42 µM,18 nM
"C[C@@H]1CC[C@@H](c2nsc(C(C)(C)O)n2)CN1C(=O)c1ccccc1CS(C)(=O)=O [Example 33, 2-{3-[(3R,6R)-6-methyl-1-({2-[(methylsulfonyl)methyl]phenyl}carbonyl)piperidin-3-yl]-1,2,4-thiadiazol-5-l}propan-2-ol]",> 10 µM,194 nM
"C[C@@H]1CC[C@@H](c2nsc(C(C)(C)O)n2)CN1C(=O)c1ccccc1-n1ncnn1 [Example 34, 2-{3-[(3R,6R)-6-methyl-1-{[2-(2H-tetrazol-2-yl)phenyl]carbonyl}piperidin-3-yl]-1,2,4-thiadiazol-5-yl}propan-2-ol]",> 10 µM,339 nM
"C[C@@H]1CC[C@@H](c2nsc(C(C)(C)O)n2)CN1C(=O)c1ccccc1-n1nccn1 [Example 35, 2-{3-[(3R,6R)-6-methyl-1-{[2-(2H-1,2,3-triazol-2-yl)phenyl]carbonyl}piperidin-3-yl]-1,2,4-thiadiazol-5-yl}propan-2-ol]",2.38 µM,27 nM
